Here are results for seven molecules from article PMC4058118, “Impact of Wines and Wine Constituents on Cyclooxygenase-1, Cyclooxygenase-2, and 5-Lipoxygenase Catalytic Activity” (Mediators of Inflammation, 2014).

Read-outs that look alike come from different tables or passages of the source.

One assay deals with T1, human recombinant COX-2 (Homo sapiens, UniProt P35354).
T1 construct: purchased Sigma-Aldrich (Czech Republic)
T1 sequence (P35354 18-604): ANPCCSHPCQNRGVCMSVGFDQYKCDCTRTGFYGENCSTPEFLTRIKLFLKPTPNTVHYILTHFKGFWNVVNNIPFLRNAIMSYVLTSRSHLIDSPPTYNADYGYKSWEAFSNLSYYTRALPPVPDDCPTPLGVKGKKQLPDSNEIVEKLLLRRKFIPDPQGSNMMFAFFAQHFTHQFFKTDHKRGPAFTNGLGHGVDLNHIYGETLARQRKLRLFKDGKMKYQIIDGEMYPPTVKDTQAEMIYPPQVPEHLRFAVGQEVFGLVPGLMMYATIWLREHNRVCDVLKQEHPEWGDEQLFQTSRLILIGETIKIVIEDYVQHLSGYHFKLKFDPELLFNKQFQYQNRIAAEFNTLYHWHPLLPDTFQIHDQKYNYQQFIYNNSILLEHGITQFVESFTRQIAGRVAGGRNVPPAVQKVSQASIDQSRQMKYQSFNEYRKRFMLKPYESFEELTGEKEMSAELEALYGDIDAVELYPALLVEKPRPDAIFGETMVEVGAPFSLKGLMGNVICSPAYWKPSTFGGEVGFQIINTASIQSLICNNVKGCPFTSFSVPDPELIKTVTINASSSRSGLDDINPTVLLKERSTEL
The experiment in a line: COX-2 assay (PGE2 formation, ELISA). Format: biochemical. To be noted: for IC50: read-out: IC50 COX-2 (dash). A general note: An ELISA detects its analyte on a solid surface through an enzyme-linked reagent.

Assay [1] deals with T2, COX-1 from ram seminal vesicles (Ovis aries, UniProt P05979).
T2 construct: COX-1 from ram seminal vesicles; purchased Sigma-Aldrich (Czech Republic); host or cells: ram seminal vesicles (tissue-derived enzyme)
T2 sequence (P05979 25-600): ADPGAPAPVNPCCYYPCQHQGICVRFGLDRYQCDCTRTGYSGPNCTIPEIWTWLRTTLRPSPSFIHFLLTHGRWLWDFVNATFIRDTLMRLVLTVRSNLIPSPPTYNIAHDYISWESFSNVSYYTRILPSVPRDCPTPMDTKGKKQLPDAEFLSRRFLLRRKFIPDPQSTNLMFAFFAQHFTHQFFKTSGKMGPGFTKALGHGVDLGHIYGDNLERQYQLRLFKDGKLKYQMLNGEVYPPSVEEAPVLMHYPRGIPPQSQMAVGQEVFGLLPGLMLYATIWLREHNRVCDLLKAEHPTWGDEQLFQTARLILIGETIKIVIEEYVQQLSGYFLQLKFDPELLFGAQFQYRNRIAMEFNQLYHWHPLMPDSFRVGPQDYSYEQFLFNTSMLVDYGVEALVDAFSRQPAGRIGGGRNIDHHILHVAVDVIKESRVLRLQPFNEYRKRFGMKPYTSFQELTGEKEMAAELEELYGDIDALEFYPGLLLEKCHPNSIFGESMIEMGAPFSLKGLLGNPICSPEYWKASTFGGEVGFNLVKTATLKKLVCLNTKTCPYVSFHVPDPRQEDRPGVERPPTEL
As to the kind of experiment: COX-1 assay (PGE2 formation, ELISA). Format: biochemical.

A further assay has as its target T3, 5-LOX (Homo sapiens, UniProt P09917).
T3 construct: endogenous in cells; host or cells: leukocytes isolated from buffy coat of healthy donors
T3 sequence (P09917 1-674): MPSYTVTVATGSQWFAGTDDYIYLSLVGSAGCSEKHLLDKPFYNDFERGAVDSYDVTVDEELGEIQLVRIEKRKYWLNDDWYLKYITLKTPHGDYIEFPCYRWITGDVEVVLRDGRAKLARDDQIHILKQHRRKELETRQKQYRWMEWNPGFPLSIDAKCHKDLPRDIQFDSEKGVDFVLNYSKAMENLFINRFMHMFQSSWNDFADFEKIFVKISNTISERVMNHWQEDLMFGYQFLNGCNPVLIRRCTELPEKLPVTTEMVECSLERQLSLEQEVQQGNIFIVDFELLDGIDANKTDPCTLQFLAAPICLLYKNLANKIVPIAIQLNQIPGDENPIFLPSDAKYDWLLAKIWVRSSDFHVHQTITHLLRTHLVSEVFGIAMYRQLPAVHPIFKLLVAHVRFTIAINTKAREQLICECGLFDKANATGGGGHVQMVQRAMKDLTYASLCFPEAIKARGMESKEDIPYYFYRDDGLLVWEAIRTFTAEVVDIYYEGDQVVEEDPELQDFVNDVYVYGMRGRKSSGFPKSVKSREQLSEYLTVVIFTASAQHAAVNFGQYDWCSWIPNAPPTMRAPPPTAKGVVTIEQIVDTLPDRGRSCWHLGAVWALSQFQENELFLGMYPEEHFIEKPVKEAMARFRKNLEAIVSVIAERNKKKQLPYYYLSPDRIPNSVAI
The experiment in a line: 5-LOX assay (LTB4 formation in cells from buffy coat, ELISA). Type of assay: cell-based.

The subject of a further assay is COX-2. To be noted: cited from earlier work.
The subject of a further assay is COX-1. To be noted: cited from earlier work.
Where [2] appears, read: mean ± SD, read-out: IC50 ± SD COX-1.
The mark [3] stands for this setting: dash = IC50 > 50 μM, read-out: IC50 COX-1 (dash).
Setting [4] is: mean ± SD, read-out: IC50 ± SD 5-LOX.

Turning to `Oc1cc(O)c2c(c1)O[C@H](c1ccc(O)c(O)c1)[C@@H](O)C2` [(+)-catechin], at human recombinant COX-2 (50 μM concentration), the “COX-2 inhibitory activity” value is “inactive”. For the same molecule, the “COX-1 inhibitory activity” value in assay [1] (50 μM concentration) was “inactive”.

As a reminder, the IC50 is the point on the concentration scale where inhibition reaches its midpoint. `O=c1c(O)c(-c2ccc(O)cc2)oc2cc(O)cc(O)c12` [Kaempferol, kaempferol]: the concentration for half-maximal inhibition (IC50) at human recombinant COX-2 is > 50 µM; in assay [1] (setting [2]), 43.8 ± 18.8 µM; on 5-LOX (read-out: IC50 5-LOX (dash)), > 50 µM.

Turning to `O=c1cc(-c2ccc(O)c(O)c2)oc2cc(O)cc(O)c12` [Luteolin, luteolin], the IC50 at human recombinant COX-2 is > 50 µM; in assay [1] (setting [3]) it was > 50 µM; at 5-LOX (setting [4]), 2.25 ± 1.75 µM.

Turning to `O=c1c(O)c(-c2cc(O)c(O)c(O)c2)oc2cc(O)cc(O)c12` [Myricetin, myricetin], the IC50 was > 50 µM on human recombinant COX-2, > 50 µM in assay [1] (setting [3]) and 4.02 ± 2.37 µM on 5-LOX.

Regarding `Oc1cc(O)cc(/C=C/c2ccc(O)c(O)c2)c1` [Piceatannol, piceatannol], the IC50 in the assay with COX-2 (ref 5 (Murias et al.)) was 0.0113 µM; on human recombinant COX-2, > 50 µM; in assay [1], > 50 µM; at 5-LOX (setting [4]) it was 0.76 ± 0.35 µM; in the assay with COX-1 (ref 5 (Murias et al.)), 4.71 µM; in the assay with COX-1 (ref 39 (Gerhäuser et al.)), 81.4 µM. In addition, the “inhibition of COX-2” value in the assay with COX-2 (ref 38 (Lee et al.)) is reported as “no inhibition”. Moreover, the “inhibition of COX-1” value in the assay on COX-1 (ref 38 (Lee et al.)) is recorded as “no inhibition”.

Turning to `O=c1c(O)c(-c2ccc(O)c(O)c2)oc2cc(O)cc(O)c12` [Quercetin, quercetin], the IC50 at human recombinant COX-2 is > 50 µM; in assay [1] (setting [2]) it was 43.8 µM; in assay [1] (read-out: IC50 COX-1 (dash)), > 50 µM.

`Oc1ccc(/C=C/c2cc(O)cc(O)c2)cc1` [Resveratrol, trans-resveratrol]: the IC50 in assay [1] (setting [2]) was 2.27 ± 1.17 µM; on 5-LOX (read-out: IC50 5-LOX (dash)), > 50 µM.
